Experimental data reported in ChEMBL document CHEMBL4477172, “Bougainvinones A-H, Peltogynoids from the Stem Bark of Purple Bougainvillea spectabilis and Their Cytotoxic Activity” (J Nat Prod, 2016).
pIC50: −log10 of the molar value.

Key:
Format in all cases: functional, cell-based
MCF7 = assay: Cytotoxicity against human MCF7 cells after 48 hrs by MTT assay; settings: MCF7, 48 h
HT-29 = assay: Cytotoxicity against human HT-29 cells after 48 hrs by MTT assay; settings: HT-29, 48 h
HeLa S3 = assay: Cytotoxicity against human HeLaS3 cells after 48 hrs by MTT assay; settings: HeLa S3, 48 h
HepG2 = assay: Cytotoxicity against human HepG2 cells after 48 hrs by MTT assay; settings: HepG2, 48 h
KB = assay: Cytotoxicity against human KB cells after 48 hrs by MTT assay

Structure (SMILES) | pIC50 (MCF7) | pIC50 (HT-29) | pIC50 (HeLa S3) | pIC50 (HepG2) | pIC50 (KB)
Cc1c(O)c(C)c2oc3c(c(=O)c2c1O)OCc1ccccc1-3 | < 5.00 | < 5.00 | < 5.00 | < 5.00 | < 5.00
Cc1c(O)c(C)c2oc3c(c(=O)c2c1O)OCc1cccc(O)c1-3 | < 5.00 | < 5.00 | < 5.00 | < 5.00 | 5.05
COc1c(C)c(OC)c2c(=O)c3c(oc2c1C)-c1ccccc1CO3 | < 5.00 | < 5.00 | < 5.00 | < 5.00 | < 5.00
COc1c(C)c(OC)c2c(=O)c3c(oc2c1C)-c1c(O)cccc1CO3 | < 5.00 | < 5.00 | < 5.00 | < 5.00 | < 5.00
COc1c(C)c(O)c2c(=O)c3c(oc2c1C)-c1c(O)cccc1CO3 | < 5.00 | < 5.00 | < 5.00 | < 5.00 | 5.18
COc1c(C)c(O)c(C)c2oc3c(c(=O)c12)OCc1ccccc1-3 | < 5.00 | < 5.00 | < 5.00 | < 5.00 | < 5.00
COc1ccc2c(c1)COc1c-2oc2c(C)c(O)c(C)c(OC)c2c1=O | < 5.00 | < 5.00 | < 5.00 | < 5.00 | < 5.00
COc1ccc2c(c1)COc1c-2oc2c(C)c(O)c(C)c(O)c2c1=O | 5.01 | 5.06 | 5.08 | 5.13 | 5.09
COc1cccc2c1C(=O)c1c(O)c3c(c(O)c1C2=O)C[C@@](O)(C(=O)CO)C[C@@H]3O[C@H]1C[C@H](N)[C@H](O)[C@H](C)O1 [DOXORUBICIN] |  | 6.59 |  | 5.81 | 7.05
